“Also recorded” adds a separate entry of the source.
Experiments:
[1] = system: patients with early dcSSc; assay: Phase 2 8-week double-blind placebo-controlled study with 16-week open-label extension; type: in vivo, human
From the text: The primary end point was safety during the double-blind phase of the trial. Exploratory end points included the identification of an LPA-induced gene signature in patients' skin.
Seventeen of 32 patients were randomly assigned to receive placebo and 15 to receive Compound 1. Thirty patients participated in the open-label extension study. […] At week 8, the reduction in MRSS was numerically greater in the Compound 1 group than in the placebo group (mean±SD change −3.57±4.18 versus −2.76±4.85; treatment effect −1.2 [95% confidence interval −4.37, 2.02]).

[2] = system: models of thrombosis; assay: Model of thrombosis (mouse); type: in vivo; conditions: one model in mouse
From the text: (§1) All these pathological events can be observed in SSc patients at different levels and further support the use of Compound 1 in these patients.

[3] = system: tight skin (Tsk-1) mice; assay: Tight skin (Tsk-1) mice skin fibrosis model; type: in vivo, mouse; conditions: 30 mg/kg/day; reference imatinib
From the text: (§2) Two models of skin fibrosis were used to evaluate the effect of Compound 1 in comparison with imatinib mesylate, used as a reference.

[4] = system: presensitized mice treated with ovalbumin; assay: Broncho-alveolar lavage of presensitized mice treated with ovalbumin; conditions: mouse, in vivo
[5] = system: models of thrombosis; assay: Acute models of coagulation and arterial thrombosis (rats); type: in vivo; conditions: two models in rats
From the text: as §1

[6] = system: hypertension-induced or nephrotoxicity-induced renal failure; assay: Models of hypertension-induced or nephrotoxicity-induced renal failure; conditions: in vivo
From the text: as §1

[7] = system: hypertension or diabetes-related cardiac hypertrophy, fibrosis and heart failure; assay: Models of hypertension or diabetes-related cardiac hypertrophy, fibrosis and heart failure; conditions: in vivo
From the text: as §1

[8] = Phase 1 studies; type: in vivo; conditions: multiple Phase 1 studies
From the text: See, Khanna, et al. (2007) Curr Rheumatol Rep. 9:151-7, which is incorporated herein by reference for all purposes.

[9] = target: lysophosphatidic acid receptor 1 (LPAR1) (Homo sapiens, UniProt Q92633); conditions: cited from earlier work
Sequence of lysophosphatidic acid receptor 1 (LPAR1) (Q92633 whole entry, species assumed): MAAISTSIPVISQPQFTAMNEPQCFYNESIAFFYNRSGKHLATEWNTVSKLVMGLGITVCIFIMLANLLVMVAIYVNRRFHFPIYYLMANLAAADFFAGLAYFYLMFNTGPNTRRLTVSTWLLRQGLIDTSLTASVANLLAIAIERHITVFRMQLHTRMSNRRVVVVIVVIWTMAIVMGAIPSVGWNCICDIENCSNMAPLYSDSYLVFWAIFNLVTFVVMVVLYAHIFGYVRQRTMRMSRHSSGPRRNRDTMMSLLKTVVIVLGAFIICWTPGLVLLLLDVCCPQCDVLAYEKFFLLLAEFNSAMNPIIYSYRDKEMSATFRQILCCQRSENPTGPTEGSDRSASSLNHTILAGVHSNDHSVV

[10] = system: bleomycin-induced skin fibrosis; assay: Bleomycin-induced skin fibrosis model, therapeutic protocol; type: in vivo, mouse; conditions: 50 mg/kg/day
From the text: as §2

[11] = 24-weeks of continuous treatment
[12] = Subjects switched from placebo to Compound 1 (16-week open label extension)
[13] = initial Compound 1 group, treatment up to 24 weeks, versus baseline

Q: Which “Median Decrease in mRSS” value [1, 11] does the source give for `COc1ccc(C(=O)NC2(C(=O)O)Cc3ccccc3C2)cc1OCCc1cccc(C)c1` [Compound 1, 2-(4-methoxy-3-(3-methylphenethoxy)benzamido)-2,3-dihydro-1H-indene-2-carboxylic acid] here?
A: −7.5

Q: What about the “Responder Rate” value [1, 11] of the same compound?
A: 78.6%

Q: What about the “LPA-related genes, biomarker analysis of skin biopsies” value ([1]; FIG. 1) of the same compound?
A: reductions

Q: What about the “Modified Rodnan Skin Score (mRSS)” value ([1]; Phase 2 double-blind phase and open label extension) of the same compound?
A: improvement

Q: What about the “Median Decrease in mRSS” value [1, 12] of the same compound?
A: −7.0

Q: What about the “Responder Rate” value [1, 12] of the same compound?
A: 69.2%

Q: What about the “most frequent adverse events” value ([1]; blinded phase) of the same compound?
A: headache, diarrhea, nausea, and falling

Q: What about the “MRSS during the study” value ([1]; difference was not significant) of the same compound?
A: improved

Q: And the “tolerability in patients with dcSSc” value ([1]; in vivo)?
A: well tolerated

Q: And the “disease biomarker COMP” value [1, 13]?
A: numerical improvement versus baseline

Q: What about the “disease biomarker TSP1” value [1, 13] of the same compound?
A: numerical improvement versus baseline

Q: What about the safety profile ([1]; open-label extension) of the same compound?
A: acceptable

Q: What about the “reduction of LPA-related genes in skin samples versus placebo” value ([1]; week 8) of the same compound?
A: greater reduction

Q: And the “change in MRSS (mean±SD)” value ([1]; week 8, double-blind phase)?
A: −3.57±4.18

Q: And the “treatment effect on MRSS versus placebo” value ([1]; week 8, 95% confidence interval −4.37, 2.02)?
A: −1.2

Q: And the HAQ-DI ([1]; week 24)?
A: clinically significant improvement

Q: What about the antithrombotic activity [2] of the same compound?
A: demonstrated antithrombotic activity

Q: And the “progression of skin fibrosis” value [3]?
A: inhibit the progression of skin fibrosis at a similar level than imatinib

Q: And the “accumulation of leukocytes and total inflammatory cells in broncho-alveolar lavage” value [4]?
A: significant inhibitory effect

Q: And the “inflammation in a model of lung injury with predominant Th2-type response” value [4]?
A: reduces inflammation

Q: What about the antithrombotic activity [5] of the same compound?
A: moderate but significant antithrombotic activity; also recorded: demonstrated antithrombotic activity

Q: And the kidney fibrosis [6]?
A: inhibits fibrosis

Q: And the kidney function [6]?
A: improved kidney function

Q: And the arterial stiffness [7]?
A: positive effect

Q: What about the blood pressure [7] of the same compound?
A: mostly unchanged

Q: What about the “cardiac function and structure” value [7] of the same compound?
A: beneficial effect

Q: What about the “cardiac systolic and diastolic function” value [7] of the same compound?
A: improves

Q: And the heart fibrosis [7]?
A: inhibits fibrosis

Q: And the safety and tolerability [8]?
A: safe and well tolerated

Q: What about the “antagonist of lysophosphatidic acid receptor 1 (LPAR1)” value [9] of the same compound?
A: potent antagonist

Q: And the “collagen content in mouse skin” value ([10]; therapeutic protocol)?
A: able to reverse

Q: What about the “dermal thickness in mouse skin” value ([10]; therapeutic protocol) of the same compound?
A: able to reverse

Q: And the “myofibroblast differentiation in mouse skin” value ([10]; therapeutic protocol)?
A: able to reverse

Q: What about the “effect on these markers compared with imatinib” value ([10]; reference imatinib mesylate) of the same compound?
A: comparable with the effects of imatinib
